Results: the NIST ThermoML archive (doi:10.1021/je034203p)

Assay: xn = mol fraction of the nth substance listed
Settings: 298.15 K, 101.3 kPa, Liquid; for viscosity: Capillary tube (Ostwald / Ubbelohde) method

Cc1ccccc1 [toluene] + ClC(Cl)=C(Cl)Cl
x2 = 0
Settings | mass density [kg/m3] | viscosity [mPa·s]
– | 860.5 | 0.5641

c1ccccc1 [benzene] + ClC=C(Cl)Cl
x2 = 0
Settings | mass density [kg/m3] | viscosity [mPa·s]
– | 869.7 | 0.608

CCCCO [butan-1-ol] + ClC=C(Cl)Cl
x2 = 0
Settings | mass density [kg/m3] | viscosity [mPa·s]
– | 806.3 | 2.538

ClC=C(Cl)Cl [trichloroethene] + Cc1ccccc1
Settings | mass density [kg/m3] | viscosity [mPa·s]
x1 = 0.1166 | 917.5 | 0.5592
x1 = 0.2291 | 975.6 | 0.5535
x1 = 0.3367 | 1033 | 0.5498
x1 = 0.4417 | 1090.9 | 0.5452
x1 = 0.5426 | 1149 | 0.5432
x1 = 0.64 | 1210.5 | 0.5445
x1 = 0.7348 | 1270.8 | 0.5454
x1 = 0.8257 | 1331.5 | 0.5477
x1 = 0.9147 | 1393.2 | 0.5495
x1 = 1 | 1455.7 | 0.551

CC(C)=O [acetone] + ClC=C(Cl)Cl
x2 = 0
Settings | mass density [kg/m3] | viscosity [mPa·s]
– | 780.8 | 0.3121

ClC=C(Cl)Cl [trichloroethene] + COC(C)=O
Settings | mass density [kg/m3] | viscosity [mPa·s]
x1 = 0.09 | 972.6 | 0.4128
x1 = 0.182 | 1022.8 | 0.4443
x1 = 0.2755 | 1074.4 | 0.4699
x1 = 0.372 | 1125.3 | 0.4925
x1 = 0.4703 | 1177.5 | 0.5147
x1 = 0.5713 | 1230.9 | 0.5325
x1 = 0.6748 | 1283.9 | 0.5447
x1 = 0.7806 | 1341 | 0.555
x1 = 0.8886 | 1397.9 | 0.5598
x1 = 1 | 1455.7 | 0.551

ClC(Cl)=C(Cl)Cl [tetrachloroethene] + CC(C)O
Settings | mass density [kg/m3] | viscosity [mPa·s]
x1 = 0.0763 | 864.9 | 1.855
x1 = 0.1567 | 946.4 | 1.676
x1 = 0.2417 | 1026.7 | 1.51
x1 = 0.3313 | 1107.5 | 1.364
x1 = 0.4266 | 1189.3 | 1.236
x1 = 0.5276 | 1271.6 | 1.123
x1 = 0.6349 | 1355.4 | 1.025
x1 = 0.7486 | 1437.6 | 0.9401
x1 = 0.8705 | 1523.6 | 0.8824
x1 = 1 | 1610.2 | 0.8474

ClC=C(Cl)Cl [trichloroethene] + CCCO
Settings | mass density [kg/m3] | viscosity [mPa·s]
x1 = 0.0848 | 864.2 | 1.705
x1 = 0.1725 | 928.6 | 1.486
x1 = 0.2627 | 992.9 | 1.281
x1 = 0.3567 | 1058.3 | 1.099
x1 = 0.4541 | 1122.4 | 0.9476
x1 = 0.5556 | 1188.3 | 0.8226
x1 = 0.6604 | 1254.3 | 0.7262
x1 = 0.7691 | 1320.6 | 0.6463
x1 = 0.8823 | 1387.5 | 0.5848
x1 = 1 | 1455.7 | 0.551

COC(C)=O [methyl ethanoate] + ClC(Cl)=C(Cl)Cl
x2 = 0
Settings | mass density [kg/m3] | viscosity [mPa·s]
– | 923.9 | 0.3711

ClC(Cl)=C(Cl)Cl [tetrachloroethene] + CCO
Settings | mass density [kg/m3] | viscosity [mPa·s]
x1 = 0.0593 | 868.1 | 1.073
x1 = 0.1243 | 949.6 | 1.04
x1 = 0.1957 | 1029.4 | 1.007
x1 = 0.2746 | 1111.3 | 0.9767
x1 = 0.3619 | 1191.8 | 0.9475
x1 = 0.4601 | 1273.7 | 0.9189
x1 = 0.57 | 1356 | 0.8939
x1 = 0.6944 | 1440 | 0.8729
x1 = 0.8364 | 1524.9 | 0.8551
x1 = 1 | 1610.2 | 0.8474

CO [methanol] + ClC(Cl)=C(Cl)Cl
x2 = 0
Settings | mass density [kg/m3] | viscosity [mPa·s]
– | 788.1 | 0.5482

COC(C)=O [methyl ethanoate] + ClC=C(Cl)Cl
x2 = 0
Settings | mass density [kg/m3] | viscosity [mPa·s]
– | 923.9 | 0.3711

ClC(Cl)=C(Cl)Cl [tetrachloroethene] + c1ccccc1
Settings | mass density [kg/m3] | viscosity [mPa·s]
x1 = 0.0883 | 939.8 | 0.6141
x1 = 0.1788 | 1011.5 | 0.6279
x1 = 0.272 | 1084.6 | 0.6438
x1 = 0.3674 | 1156.7 | 0.6618
x1 = 0.4655 | 1228.8 | 0.6834
x1 = 0.5671 | 1302.3 | 0.7088
x1 = 0.6706 | 1377.4 | 0.7367
x1 = 0.777 | 1453.2 | 0.7693
x1 = 0.8873 | 1531.7 | 0.8051
x1 = 1 | 1610.2 | 0.8474

CC(C)=O [acetone] + ClC(Cl)=C(Cl)Cl
x2 = 0
Settings | mass density [kg/m3] | viscosity [mPa·s]
– | 780.8 | 0.3121
